Results on 3 molecules are retold here after ChEMBL document CHEMBL1759996, “Design and synthesis of pyridin-2-yloxymethylpiperidin-1-ylbutyl amide CCR5 antagonists that are potent inhibitors of M-tropic (R5) HIV-1 replication” (Bioorg Med Chem Lett, 2011).

Series [1] in a line: AUC (0 to infinity) in rat. Type of series: ADME, organism-based. Also on record: time infinity. As to conditions: plasma.
A short description of series [2]: Volume of distribution at steady state in rat at 10 umol/kg, iv. Type of series: ADME, organism-based. As to conditions: in vivo, read-out: Vdss.
Series [3] can be described thus: Clearance in dog at 5 umol/kg, iv. Type of series: ADME, organism-based, Canis lupus familiaris. As to conditions: in vivo.
Series [4] in a line: Cytotoxicity against human PBMC. Type of series: cell-based.
Series [5] can be described thus: Oral bioavailability in rat at 100 umol/kg. Type of series: ADME, organism-based. As to conditions: in vivo.
Series [6] can be described thus: AUC (0 to infinity) in dog. Type of series: ADME, organism-based, Canis lupus familiaris. Also noted: time infinity. As to conditions: plasma.
Series [7] concerns the target C-C chemokine receptor type 5 (Homo sapiens, UniProt P51681). The series is described as follows: Displacement of […] from CCR5 expressed in HEK293F cells. The class given is cell-based.
Series [8] is described as follows: Cmax in dog. The class given is ADME, organism-based, Canis lupus familiaris. As to conditions: in vivo.
The test system of series [9] is Human immunodeficiency virus 1. The series can be described thus: Antiviral activity against Human immunodeficiency virus 1 BAL infected in human PBMC assessed as inhibition of viral replication by p24 antigen specific ELISA. Type of series: functional, organism-based.
A short description of series [10]: Volume of distribution at steady state in dog at 5 umol/kg, iv. The note with it: in vivo, read-out: Vdss. The class given is ADME, organism-based, Canis lupus familiaris.
Series [11] in a line: Half life in rat at 10 umol/kg, iv. Type of series: ADME, organism-based. The note with it: in vivo.
A short description of series [12]: Oral bioavailability in dog at 12.5 umol/kg. The class given is ADME, organism-based, Canis lupus familiaris. As to conditions: in vivo.
The nature of series [13]: Clearance in rat at 10 umol/kg, iv. As to conditions: in vivo. The class given is ADME, organism-based.
The nature of series [14]: Half life in dog at 5 umol/kg, iv. Type of series: ADME, organism-based, Canis lupus familiaris. As to conditions: in vivo.
A short description of series [15]: Cmax in rat. Type of series: ADME, organism-based. As to conditions: in vivo.

C-C chemokine receptor type 5, sequence (P51681 whole entry): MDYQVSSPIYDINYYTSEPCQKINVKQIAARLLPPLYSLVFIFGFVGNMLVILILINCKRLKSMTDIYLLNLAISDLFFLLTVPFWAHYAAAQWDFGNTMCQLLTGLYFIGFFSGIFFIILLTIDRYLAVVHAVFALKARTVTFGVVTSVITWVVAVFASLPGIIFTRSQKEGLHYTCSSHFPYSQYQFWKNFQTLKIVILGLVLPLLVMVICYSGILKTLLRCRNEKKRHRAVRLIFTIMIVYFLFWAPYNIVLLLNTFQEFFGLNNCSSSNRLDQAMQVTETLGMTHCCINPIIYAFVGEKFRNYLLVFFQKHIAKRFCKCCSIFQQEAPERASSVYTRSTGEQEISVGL

For `CC(CCNC(=O)c1c(Cl)cncc1Cl)N1CCC(C(Oc2cccc(Cl)n2)c2ccc(C(F)(F)F)cc2)CC1` (mixture of isomers), the AUC(0-inf) came out at 2400 nM·h in series [1] and 500 nM·h in [6]. Besides, the Vd in series [2] came out at 15.2 L/kg; in [10], 20.8 L/kg. For the same molecule, the clearance in series [3] stood at 1.9 L/h/kg; in [13], 8.5 L/h/kg. In [4], this molecule returned a CC50 of more than 32.5 µM. Moreover, the bioavailability worked out at 20% in series [5] and 6% in series [12]. Further, the IC50 in [7] stood at 0.02 µM; in series [9] it was 0.009 µM. For the same molecule, the Cmax was found to be 0.1 µM in [8] and 0.2 µM in series [15]. Also, the values for the half-life in series [11] and in series [14] were 1.2 h and 7.7 h, respectively.

In [1], `CCO/N=C(/c1ccc(Br)cc1)C1CCN(C2(C)CCN(C(=O)c3c(C)cc[n+]([O-])c3C)CC2)CC1` [SCHERING C] returned an AUC(0-inf) of 4300 nM·h. The Vd in series [2] was found to be 7.2 L/kg. This molecule showed a CC50 in [4] of more than 1.6 µM. The molecule further returned a bioavailability in [5] of 48%. Besides, the IC50 in [7] came out at 0.04 µM; in [9], 0.16 µM. This molecule showed a half-life in [11] of 2.7 h. Further, the clearance in [13] was 1.9 L/h/kg. The molecule further gave a peak concentration (Cmax) in series [15] of 1.6 µM.

`CCO/N=C(/c1ccc(Br)cc1)C1CCN(C(C)CCNC(=O)c2c(C)cc[n+]([O-])c2C)CC1` (configuration not stated) had a CC50 in series [4] of more than 178 µM. Also, the IC50 in series [7] was found to be 0.29 µM; in series [9] it was 2.54 µM.
